Assay [1] has as its target T1, NK1R (Mus musculus, UniProt P30548). As to the kind of experiment: Phenol red thread tear volume after ocular HSV-1 infection, GR73632 I.P. treatment. In kind it is in vivo, mice. Also noted: from tissue; host or cells: living mice (in vivo; eye / tear read-out after systemic dosing). As to conditions: GR73632 I.P. treated vs control treated group. How it is done:
FIGS. 12A, 12B. Increased tear volume at D7 and D10 post ocular HSV-1 infection (POI) in GR73632 I.P treated eyes compared to the control treated group. Phenol Red thread (yellow color) images showing the thread wetness (red color) measured in mm.
Corneal HSV-1 infection. To carry out ocular HSV-1 infection, mice were first anesthetized by intra-peritoneal injection of Ketamine (33 mg/Kg bodyweight)+Xylazine (20 mg/Kg bodyweight) in 0.2 ml PBS. The cornea was scarified with trephine (Fine Science Tools, Foster City, Calif.) while twisting three to four times over the corneal surface. 1×10^4 plaque forming units (p.f.u) of HSV-1 virus were then topically applied with a pipette to the eye in 3 μL of 1×PBS followed by gentle massage of the eyelids.
(§1) Phenol red thread tear test. To measure the tear levels in the eyes of unmanipulated B6 and NK1R^−/− mice, pH indicator phenol red treated cotton threads were obtained from Zone-Quick (ZQ-1010, Showa Yakuhin Kako, Japan). The mice were restrained by holding the lose skin at the base of the neck without touching the facial skin or whiskers. The eyes were tested for tear level by placing the tip of the cotton thread on the bulbar conjunctiva of the lateral canthus for 30 seconds. A picture of the threads was taken and tear absorption was measured using a 10 cm scale.

For assay [2], the target named is T1, NK1R. As to the kind of experiment: Tear film (basal tear volume) after systemic NK1R antagonist administration. As to conditions: systemic treatment, C57Bl/6 mice. The arrangement: from tissue; host or cells: living C57Bl/6 mice (in vivo; basal tear volume). In kind it is in vivo. How it is done: FIG. 14. Alteration in Tear Film after NK1R antagonist administration.
as §1

Where a SMILES comes first, the peptide text is derived from it. [ ]: non-standard residue; d: D form. NMeL = CN[C@@H](CC(C)C)C(=O)O; Ava = NCCCCC(=O)O

This is an account of results in US20180243363A1, “NEUROKININ 1 RECEPTOR AGONIST MEDIATED PROTECTION OF THE EYE” (WAYNE STATE UNIVERSITY, priority 2016, published 2018).

T1 sequence (P30548 whole entry): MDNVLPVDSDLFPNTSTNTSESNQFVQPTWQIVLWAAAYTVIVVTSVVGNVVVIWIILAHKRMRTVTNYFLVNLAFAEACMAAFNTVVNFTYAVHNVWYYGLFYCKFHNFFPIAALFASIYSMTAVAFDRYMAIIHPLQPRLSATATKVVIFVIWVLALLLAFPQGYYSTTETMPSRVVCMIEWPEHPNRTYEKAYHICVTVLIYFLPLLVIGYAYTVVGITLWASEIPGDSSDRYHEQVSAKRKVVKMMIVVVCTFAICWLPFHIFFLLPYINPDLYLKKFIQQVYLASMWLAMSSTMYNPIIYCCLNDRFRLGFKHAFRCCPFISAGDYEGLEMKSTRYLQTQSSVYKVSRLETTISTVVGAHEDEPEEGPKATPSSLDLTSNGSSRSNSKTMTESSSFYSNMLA

`CSCC[C@H](NC(=O)[C@H](CC(C)C)N(C)C(=O)[C@@H]1CCCN1C(=O)[C@H](Cc1ccccc1)NC(=O)[C@H](Cc1ccccc1)NC(=O)CCCCN)C(N)=O` [GR73632] (H-[Ava]FFP[NMeL]M-NH2): the “tear volume (phenol red thread wetness)” value in assay [1] (D7 post ocular HSV-1 infection, p<0.05) is reported as “Significant increase in tear volume”; in assay [1] (D10 post ocular HSV-1 infection, p<0.01), “Significant increase in tear volume”.

Turning to Spantide I, the “volume of basal tears” value in assay [2] was “reduces the volume of basal tears”.
